Reference: patent US11324744B2, “Methods of use and pharmaceutical combinations of histone deacetylase inhibitors and CD20 inhibitory antibodies” (Acetylon Pharmaceuticals Inc., priority 2016, dated 2022)

What was measured:
CD20 in Raji cells = assay: Cell surface abundance of CD20 by staining and flow cytometry in Raji cells; assay type: cell-based, human; conditions: 0.25-4.0 μM, 48 hours, MFI, FIG. 2A/2B
Protocol: (§1) Cells were treated with increasing concentrations of Compound A (i.e., 0.25 μM, 0.5 μM, 1.0 μM, 2.0 μM, and 4.0 μM) for 48 hours and processed for cell surface abundance of CD20 protein and mRNA in Raji cells. The treated Raji cells were stained for IgG2bK-APC and CD20-APC. The dotted line indicates median of DMSO treatment. The quantification of mean fluorescence intensity (MFI) following cell surface staining and flow cytometry of Raji cells is shown in FIG. 2B. Each sample was background subtracted, where the IgG2bK-APC median MFI in Raji cells was used as the background. […] Together, increased CD20 expression triggered by Compound A can be a potential mechanism for the in vivo combination effect on the Raji cell model. Compound A induced CD20 mRNA expression and cell surface abundance of CD20 on Raji cells. That can be a potential mechanism for the synergistic effect of Compound A with rituximab.

CD20 mRNA in Raji cells = assay: CD20 mRNA expression relative to RPLP1 in Raji cells; assay type: cell-based, human; conditions: 0.25-4.0 μM, 48 hours, FIG. 2D
Protocol: as §1

CD20 in Jeko cells = assay: Cell surface abundance of CD20 by staining and flow cytometry in Jeko cells; assay type: cell-based; conditions: 0.25-4.0 μM, 48 hours, MFI, FIG. 3A/3B
Protocol: (§2) Cells were treated with increasing concentrations of Compound A (i.e., 0.25 μM, 0.5 μM, 1.0 μM, 2.0 μM, and 4.0 μM) for 48 hours and processed for cell surface abundance of CD20 protein and mRNA in Jeko cells. The treated Jeko cells were stained for IgG2bK-APC and CD20-APC. The dotted line indicates median of DMSO treatment. The quantification of mean fluorescence intensity (MFI) following cell surface staining and flow cytometry of Jeko cells is shown in FIG. 3B. Each sample was background subtracted, where the IgG2bK-APC median MFI in Jeko cells was used as the background. […] Compound A induced CD20 mRNA expression and cell surface abundance of CD20 on Jeko cells. That can be a potential mechanism for the synergistic effect of Compound A with rituximab.

CD20 mRNA in Jeko cells = assay: CD20 mRNA expression relative to RPLP1 in Jeko cells; assay type: cell-based; conditions: 0.25-4.0 μM, 48 hours, FIG. 3D
Protocol: as §2

O=C(CCCCCCNC(=O)c1cnc(N(c2ccccc2)c2ccccc2Cl)nc1)NO [Compound A, 2-((2-chlorophenyl)(phenyl)amino)-N-(7-(hydroxyamino)-7-oxoheptyl)pyrimidine-5-carboxamide]
induced: cell surface abundance of CD20 (CD20 in Raji cells) | CD20 mRNA expression (CD20 mRNA in Raji cells) | cell surface abundance of CD20 (CD20 in Jeko cells) | CD20 mRNA expression (CD20 mRNA in Jeko cells)
